# Measurements reported in publication PMC8119294 (Biochemistry, 2020).
# Tests used:
# human DOP = settings: HEK 293 cells, very low potency; cited from earlier work
# hMOP H321F mutant = hMOP H321F mutant (Homo sapiens, UniProt P35372, H321F); test: Gαi-mediated cAMP inhibition assay, hMOP H321F mutant; assay type: cell-based; settings: for potency reduction at His321F mutant compared to wild-type receptor: EC50 mutant vs wild type; for decrease in efficacy at His321F mutant: Emax mutant vs wild type; for Emax: normalized to Emax of DAMGO
# hMOP H321F mutant, sequence (P35372 whole entry H321F): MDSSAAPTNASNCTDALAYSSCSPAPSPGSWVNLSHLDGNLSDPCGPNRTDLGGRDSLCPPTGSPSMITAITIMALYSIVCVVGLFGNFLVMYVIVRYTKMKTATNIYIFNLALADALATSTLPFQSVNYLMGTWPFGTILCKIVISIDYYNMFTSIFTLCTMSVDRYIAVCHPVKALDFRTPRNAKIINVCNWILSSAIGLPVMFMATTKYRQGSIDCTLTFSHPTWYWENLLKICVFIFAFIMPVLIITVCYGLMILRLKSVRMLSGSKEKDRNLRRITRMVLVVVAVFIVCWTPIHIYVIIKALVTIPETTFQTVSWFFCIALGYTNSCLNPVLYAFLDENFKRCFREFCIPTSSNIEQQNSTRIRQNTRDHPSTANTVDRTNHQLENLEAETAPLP
# MOP = settings: read-out: Ki at MOP; CHO cells; cited from earlier work
# [1] = molecular target: human opioid receptor OPRM_HUMAN (hMOP), wild type (Homo sapiens, UniProt P35372); assay type: cell-based; settings: for Emax: WT hMOP, normalized to Emax of DAMGO
# human opioid receptor OPRM_HUMAN (hMOP), wild type, sequence (P35372 whole entry): as the sequence (P35372 whole entry H321F) above, with F321H counted along it
# hMOP Asn129K mutant = hMOP Asn129K mutant (Homo sapiens, UniProt P35372, N129K); test: Gαi-mediated cAMP inhibition assay, hMOP Asn129K mutant; assay type: cell-based; settings: for Emax: normalized to Emax of DAMGO
# hMOP Asn129K mutant, sequence (P35372 whole entry N129K): as the sequence (P35372 whole entry H321F) above, with N129K, F321H counted along it
# human MOP = settings: HEK 293 cells; cited from earlier work
# DOP = settings: read-out: Ki at DOP; CHO cells; cited from earlier work
# mice = settings: radiant heat tail flick assay; cited from earlier work
# rats = settings: hot plate assay; cited from earlier work
# human KOP = settings: HEK 293 cells; cited from earlier work
# KOP = settings: read-out: Ki at KOP; CHO cells; cited from earlier work
# α-adrenergic receptors = settings: read-out: Ki for α-adrenergic receptors; cited from earlier work
# opioid receptors = settings: read-out: Ki for opioid receptors; cited from earlier work
# [2] = HEK 293T cells, hMOP H321F mutant, cAMP assay, Gi
# [3] = HEK 293T cells, wild type (WT) hMOP, cAMP assay, Gi
# [4] = HEK 293T cells, hMOP Asn129K mutant, cAMP assay, Gi
Compound,functional activity at human DOP (human DOP),potency reduction at His321F mutant compared to wild-type receptor (hMOP H321F mutant; cAMP assay),decrease in efficacy at His321F mutant (hMOP H321F mutant; cAMP assay),Emax (hMOP H321F mutant; hMOP H321F mutant),Ki (MOP),Emax [1],Emax (hMOP Asn129K mutant; hMOP Asn129K mutant),functional activity at human MOP (human MOP),Ki (DOP),analgesic effect compared to morphine (mice),analgesic effect compared to morphine (rats),functional activity at human KOP (human KOP),Ki (KOP),other results
"CC[C@@H]1CN2CC[C@@]3(O)C(=Nc4cccc(OC)c43)[C@@H]2C[C@@H]1/C(=C\OC)C(=O)OC [7OH, 7-hydroxymitragynine]",competitive antagonists,2.5 fold,> 25%,60 ± 9%,37 ± 4 nM,89±3.8%,92 ± 3.2%,partial agonists,91 ± 8 nM,significantly more potent than morphine,significantly more potent than morphine,competitive antagonists,132 ± 7 nM,"potency reduction at Asn129K mutant compared to wild-type receptor (hMOP Asn129K mutant; EC50 mutant vs wild type, cAMP assay): 5 fold"
"CC[C@@H]1CN2CC[C@]3(Nc4cccc(OC)c4C3=O)[C@@H]2C[C@@H]1/C(=C\OC)C(=O)OC [MP, mitragynine pseudoindoxyl]",–,32 fold,> 25%,58.9 ± 6.7%,0.8 ± 0.2 nM,81±3.6%,88 ± 2.97%,–,3 ± 1.3 nM,–,–,–,24 ± 0.9 nM,"EC50 (hMOP H321F mutant; [2]): 16.9 nM; pEC50 ± SEM (hMOP H321F mutant; [2]): 7.77 ± 0.27; EC50 [1, 3]: 0.55 nM; pEC50 ± SEM [1, 3]: 9.28±0.11; EC50 (hMOP Asn129K mutant; [4]): 0.9 nM; pEC50 ± SEM (hMOP Asn129K mutant; [4]): 9.04 ± 0.084; potency relative to morphine (mice): 1.5 fold"
mitragynine [MG],competitive antagonists,–,–,–,230 ± 47 nM,–,–,partial agonists,–,significantly lower than morphine,significantly lower than morphine,competitive antagonists,–,Ki (α-adrenergic receptors): 1340 to 9290 nM; Ki (opioid receptors): 161 to 198 nM
